Reference: ChEMBL document CHEMBL1152891, “Design of novel aminopyrrolidine factor Xa inhibitors from a screening hit” (Eur J Med Chem, 2009)
Values after ≈ are worked out from the molar mass of the structure shown.

How the values were obtained:
[1] = Aqueous solubility of the compound; assay type: physicochemical
[2] = Lipophilicity, log D of the compound; assay type: physicochemical; details: octanol/water
[3] = Volume of distribution at steady state in rat at 1 mg, iv; assay type: ADME, organism-based; details: in vivo, read-out: Vdss
[4] = Tmax in rat at 1 mg, po; assay type: ADME, organism-based; details: in vivo
[5] = Permeability across cell membrane; assay type: ADME; details: not told; read-out: permeability
[6] = Oral bioavailability in rat at 1 mg, po; assay type: ADME, organism-based; details: in vivo
[7] = Volume of distribution at steady state in rat at 0.5 mg, iv; assay type: ADME, organism-based; details: in vivo, read-out: Vdss

Row | SMILES | solubility ([1]; aqueous, read-out: solubility) [µg/mL] | logD [2] | also measured
1 | O=C(Cc1csc(NC(=O)c2ccc(Cl)cc2)n1)Nc1ccc(-n2ccccc2=O)cc1F | < 1 | > 3 | 
2 | CN1CCC(N2CCN(C(=O)Cc3csc(NC(=O)c4ccc(Cl)cc4)n3)CC2)CC1 | > 620 | 0.6 | 
3 | O=C(Cc1csc(NC(=O)c2ccc(Cl)s2)n1)Nc1ccc(-n2ccccc2=O)cc1F | < 1 | > 3 | 
4 | CN1CCC(N2CCN(C(=O)Cc3csc(NC(=O)c4ccc(Cl)s4)n3)CC2)CC1 | > 620 | 1 | 
5 | O=C(CN1C[C@H](NC(=O)c2ccc(Cl)s2)[C@@H](OCCO)C1)Nc1ccc(-n2ccccc2=O)cc1F |  | 1.6 | solubility ([1]; buffer): > 713 µg/mL; Vd [3]: 1.1 L/kg; Tmax [4]: 15 min; Papp [5]: 0.4 ×10⁻⁶ cm/s; bioavailability [6]: 16%
6 | CN1CCC(N2CCN(C(=O)Cn3ccc(NC(=O)c4ccc(Cl)s4)n3)CC2)CC1 | > 601 | 0.1 | 
7 | O=C(Nc1nc(CC(=O)N2CCN(CC(=O)N3CCCC3)CC2)cs1)c1ccc(Cl)cc1 | > 580 | 2.2 | 
8 | O=C(Cn1ccc(NC(=O)c2ccc(Cl)s2)n1)Nc1ccc(-n2ccccc2=O)cc1F | < 1 | > 3 | 
9 | O=C(CN1CC[C@@H](NC(=O)c2ccc(Cl)s2)C1)Nc1ccc(-n2ccccc2=O)cc1F | 197 (≈ 415 µM) | 2.3 | 
10 | O=C(Cn1cnc(NC(=O)c2ccc(Cl)s2)n1)Nc1ccc(-n2ccccc2=O)cc1F | 1 (≈ 2.11 µM) | 2.4 | Tmax [4]: 66 min; Vd [7]: 0.3 L/kg; Papp [5]: 0.9 ×10⁻⁶ cm/s; bioavailability [6]: 10%
11 | O=C(CN1C[C@H](NC(=O)c2ccc(Cl)s2)[C@@H](O)C1)Nc1ccc(-n2ccccc2=O)cc1F |  |  | solubility ([1]; buffer): 516 µg/mL (≈ 1050 µM); Tmax [4]: 15 min; Vd [7]: 1.1 L/kg; Papp [5]: 1.5 ×10⁻⁶ cm/s; bioavailability [6]: 38%
12 | O=C(Nc1nc(CC(=O)N2CCN(CC(=O)N3CCCC3)CC2)cs1)c1ccc(Cl)s1 | > 640 | 2.1 | 
13 | CN1CCC(N2CCN(C(=O)Cn3cnc(NC(=O)c4ccc(Cl)s4)n3)CC2)CC1 | > 600 | -0.5 | 
14 | O=C(CN1CC[C@H](NC(=O)c2ccc(Cl)s2)C1)Nc1ccc(-n2ccccc2=O)cc1F | 166 (≈ 350 µM) | 2.3 | 
15 | O=C(Cn1nnc(NC(=O)c2ccc(Cl)s2)n1)Nc1ccc(-n2ccccc2=O)cc1F | < 1 | 2.4 | 
